Measured values reported in US20100099561A1, “HETEROBICYCLIC ALKYLTHIO-BRIDGED ISOXAZOLINES” (E.I. DU PONT DE NEMOURS AND COMPANY, priority 2008, published 2010).

Columns and labels:
Format in all cases: in vivo
[1] = system: large crabgrass (Digitaria sanguinalis); assay: Test A postemergence, large crabgrass; settings: 0 to 100 scale (0 no effect, 100 complete control)
In short: (§1)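 Sow seeds in loam–sand blend; spray soil directly (pre) and treat emerged one- to two-leaf plants 2–10 cm tall (post) with compound in surfactant-containing non-phytotoxic solvent. Keep in greenhouse about ten days. Score injury visually against controls from 0 to 100.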

[2] = system: wheat (Triticum aestivum); assay: Test A preemergence, wheat; settings: 0 to 100 scale (0 no effect, 100 complete control)
In short: as §1

[3] = system: morningglory (Ipomoea spp.); assay: Test A preemergence, morningglory; settings: 0 to 100 scale (0 no effect, 100 complete control)
In short: as §1

[4] = system: giant foxtail (Setaria faberi); assay: Test A preemergence, giant foxtail; settings: 0 to 100 scale (0 no effect, 100 complete control)
In short: as §1

[5] = system: wheat (Triticum aestivum); assay: Test A postemergence, wheat; settings: 0 to 100 scale (0 no effect, 100 complete control)
In short: as §1

[6] = system: giant foxtail (Setaria faberi); assay: Test A postemergence, giant foxtail; settings: 0 to 100 scale (0 no effect, 100 complete control)
In short: as §1

rice (Oryza sativa) = assay: Test B flooded paddy test, rice; settings: Flood, scale 0 to 100
In short: (§2)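 Rice, umbrella sedge, ducksalad and barnyardgrass at 2-leaf stage; pots flooded to 3 cm, compounds applied into paddy water, depth held throughout. Greenhouse 13 to 15 days, then visual rating vs untreated controls on 0–100 scale (0 no effect, 100 complete control); dash means no test result.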

[7] = system: velvetleaf (Abutilon theophrasti); assay: Test A postemergence, velvetleaf; settings: 0 to 100 scale (0 no effect, 100 complete control)
In short: as §1

[8] = system: pigweed (Amaranthus retroflexus); assay: Test A postemergence, pigweed; settings: 0 to 100 scale (0 no effect, 100 complete control)
In short: as §1

corn (Zea mays) [9] = assay: Test A postemergence, corn; settings: 0 to 100 scale (0 no effect, 100 complete control)
In short: as §1

[10] = system: velvetleaf (Abutilon theophrasti); assay: Test A preemergence, velvetleaf; settings: 0 to 100 scale (0 no effect, 100 complete control)
In short: as §1

[11] = system: barnyardgrass (Echinochloa crus-galli); assay: Test A preemergence, barnyardgrass; settings: 0 to 100 scale (0 no effect, 100 complete control)
In short: as §1

[12] = system: ducksalad (Heteranthera limosa); assay: Test B flooded paddy test, ducksalad; settings: Flood, scale 0 to 100
In short: as §2

corn (Zea mays) [13] = assay: Test A preemergence, corn; settings: 0 to 100 scale (0 no effect, 100 complete control)
In short: as §1

[14] = system: morningglory (Ipomoea spp.); assay: Test A postemergence, morningglory; settings: 0 to 100 scale (0 no effect, 100 complete control)
In short: as §1

[15] = system: barnyardgrass (Echinochloa crus-galli); assay: Test B flooded paddy test, barnyardgrass; settings: Flood
In short: as §2

[16] = system: large crabgrass (Digitaria sanguinalis); assay: Test A preemergence, large crabgrass; settings: 0 to 100 scale (0 no effect, 100 complete control)
In short: as §1

[17] = system: barnyardgrass (Echinochloa crus-galli); assay: Test A postemergence, barnyardgrass; settings: 0 to 100 scale (0 no effect, 100 complete control)
In short: as §1

[18] = system: umbrella sedge (Cyperus difformis); assay: Test B flooded paddy test, umbrella sedge; settings: Flood, scale 0 to 100
In short: as §2

[19] = system: pigweed (Amaranthus retroflexus); assay: Test A preemergence, pigweed; settings: 0 to 100 scale (0 no effect, 100 complete control)
In short: as §1

[20] = 250 g ai/ha, scale 0 to 100 (0 no effect, 100 complete control)

Cc1con2c(=O)c(CS(=O)(=O)C3=NOC(C)(C)C3)c(C(F)(F)F)nc12 [Compound 56]
Plant response rating, Crabgrass, Large ([1]; 125 g ai/ha): 60
Plant response rating, Crabgrass, Large ([1]; 500 g ai/ha): 80
Plant response rating, Wheat ([2]; 125 g ai/ha): 0
Plant response rating, Wheat ([2]; 500 g ai/ha): 0
Plant response rating, Morningglory ([3]; 125 g ai/ha): 0
Plant response rating, Morningglory ([3]; 500 g ai/ha): 0
Plant response rating, Foxtail, Giant ([4]; 125 g ai/ha): 20
Plant response rating, Foxtail, Giant ([4]; 500 g ai/ha): 90
Plant response rating, Wheat ([5]; 125 g ai/ha): 0
Plant response rating, Wheat ([5]; 500 g ai/ha): 0
Plant response rating, Foxtail, Giant ([6]; 125 g ai/ha): 40
Plant response rating, Foxtail, Giant ([6]; 500 g ai/ha): 80
Plant response rating, Rice (rice (Oryza sativa); 31 g ai/ha): 0
Plant response rating, Rice (rice (Oryza sativa); 62 g ai/ha): 0
Plant response rating, Rice (rice (Oryza sativa); 125 g ai/ha): 0
Plant response rating, Rice (rice (Oryza sativa); 250 g ai/ha): 0
Plant response rating, Velvetleaf ([7]; 125 g ai/ha): 0
Plant response rating, Velvetleaf ([7]; 500 g ai/ha): 0
Plant response rating, Pigweed ([8]; 125 g ai/ha): 0
Plant response rating, Pigweed ([8]; 500 g ai/ha): 10
Plant response rating, Corn (corn (Zea mays) [9]; 125 g ai/ha): 0
Plant response rating, Corn (corn (Zea mays) [9]; 500 g ai/ha): 0
Plant response rating, Velvetleaf ([10]; 125 g ai/ha): 0
Plant response rating, Velvetleaf ([10]; 500 g ai/ha): 0
Plant response rating, Barnyardgrass ([11]; 125 g ai/ha): 0
Plant response rating, Barnyardgrass ([11]; 500 g ai/ha): 90
Plant response rating, Ducksalad ([12]; 31 g ai/ha): 0
Plant response rating, Ducksalad ([12]; 62 g ai/ha): 0
Plant response rating, Ducksalad ([12]; 125 g ai/ha): 0
Plant response rating, Ducksalad ([12]; 250 g ai/ha): 0
Plant response rating, Corn (corn (Zea mays) [13]; 125 g ai/ha): 0
Plant response rating, Corn (corn (Zea mays) [13]; 500 g ai/ha): 0
Plant response rating, Morningglory ([14]; 125 g ai/ha): 10
Plant response rating, Morningglory ([14]; 500 g ai/ha): 30
Plant response rating, Barnyardgrass ([15]; 31 g ai/ha, scale 0 to 100): 0
Plant response rating, Barnyardgrass ([15]; 62 g ai/ha, scale 0 to 100): 0
Plant response rating, Barnyardgrass ([15]; 125 g ai/ha, scale 0 to 100): 0
Plant response rating, Barnyardgrass [15, 20]: 0
Plant response rating, Crabgrass, Large ([16]; 125 g ai/ha): 0
Plant response rating, Crabgrass, Large ([16]; 500 g ai/ha): 90
Plant response rating, Barnyardgrass ([17]; 125 g ai/ha): 70
Plant response rating, Barnyardgrass ([17]; 500 g ai/ha): 80
Plant response rating, Sedge, Umbrella ([18]; 31 g ai/ha): 0
Plant response rating, Sedge, Umbrella ([18]; 62 g ai/ha): 0
Plant response rating, Sedge, Umbrella ([18]; 125 g ai/ha): 20
Plant response rating, Sedge, Umbrella ([18]; 250 g ai/ha): 30
Plant response rating, Pigweed ([19]; 125 g ai/ha): 0
Plant response rating, Pigweed ([19]; 500 g ai/ha): 0

CCn1c(=O)c(CS(=O)(=O)C2=NOC(C)(C)C2)nc2cccnc21 [Compound 57]
Plant response rating, Crabgrass, Large ([1]; 125 g ai/ha): 10
Plant response rating, Crabgrass, Large ([1]; 500 g ai/ha): 40
Plant response rating, Wheat ([2]; 125 g ai/ha): 0
Plant response rating, Wheat ([2]; 500 g ai/ha): 0
Plant response rating, Morningglory ([3]; 125 g ai/ha): 0
Plant response rating, Morningglory ([3]; 500 g ai/ha): 0
Plant response rating, Foxtail, Giant ([4]; 125 g ai/ha): 0
Plant response rating, Foxtail, Giant ([4]; 500 g ai/ha): 40
Plant response rating, Wheat ([5]; 125 g ai/ha): 0
Plant response rating, Wheat ([5]; 500 g ai/ha): 0
Plant response rating, Foxtail, Giant ([6]; 125 g ai/ha): 0
Plant response rating, Foxtail, Giant ([6]; 500 g ai/ha): 30
Plant response rating, Rice (rice (Oryza sativa); 31 g ai/ha): 0
Plant response rating, Rice (rice (Oryza sativa); 62 g ai/ha): 0
Plant response rating, Rice (rice (Oryza sativa); 125 g ai/ha): 0
Plant response rating, Rice (rice (Oryza sativa); 250 g ai/ha): 0
Plant response rating, Velvetleaf ([7]; 125 g ai/ha): 0
Plant response rating, Velvetleaf ([7]; 500 g ai/ha): 0
Plant response rating, Pigweed ([8]; 125 g ai/ha): 0
Plant response rating, Pigweed ([8]; 500 g ai/ha): 0
Plant response rating, Corn (corn (Zea mays) [9]; 125 g ai/ha): 0
Plant response rating, Corn (corn (Zea mays) [9]; 500 g ai/ha): 0
Plant response rating, Velvetleaf ([10]; 125 g ai/ha): 0
Plant response rating, Velvetleaf ([10]; 500 g ai/ha): 0
Plant response rating, Barnyardgrass ([11]; 125 g ai/ha): 0
Plant response rating, Barnyardgrass ([11]; 500 g ai/ha): 40
Plant response rating, Ducksalad ([12]; 31 g ai/ha): 0
Plant response rating, Ducksalad ([12]; 62 g ai/ha): 0
Plant response rating, Ducksalad ([12]; 125 g ai/ha): 0
Plant response rating, Ducksalad ([12]; 250 g ai/ha): 0
Plant response rating, Corn (corn (Zea mays) [13]; 125 g ai/ha): 0
Plant response rating, Corn (corn (Zea mays) [13]; 500 g ai/ha): 0
Plant response rating, Morningglory ([14]; 125 g ai/ha): 0
Plant response rating, Morningglory ([14]; 500 g ai/ha): 0
Plant response rating, Barnyardgrass ([15]; 31 g ai/ha, scale 0 to 100): 0
Plant response rating, Barnyardgrass ([15]; 62 g ai/ha, scale 0 to 100): 0
Plant response rating, Barnyardgrass ([15]; 125 g ai/ha, scale 0 to 100): 0
Plant response rating, Barnyardgrass [15, 20]: 0
Plant response rating, Crabgrass, Large ([16]; 125 g ai/ha): 40
Plant response rating, Crabgrass, Large ([16]; 500 g ai/ha): 50
Plant response rating, Barnyardgrass ([17]; 125 g ai/ha): 0
Plant response rating, Barnyardgrass ([17]; 500 g ai/ha): 30
Plant response rating, Sedge, Umbrella ([18]; 31 g ai/ha): 0
Plant response rating, Sedge, Umbrella ([18]; 62 g ai/ha): 0
Plant response rating, Sedge, Umbrella ([18]; 125 g ai/ha): 0
Plant response rating, Sedge, Umbrella ([18]; 250 g ai/ha): 0
Plant response rating, Pigweed ([19]; 125 g ai/ha): 0
Plant response rating, Pigweed ([19]; 500 g ai/ha): 0
